Source: the supplement of paper PMC10307832

Tests used:
Test in all cases: relative viability (nuclei count vs DMSO), 5 days (fraction); higher = more cells survive
BAY61-3606 + Lapatinib = compound: COC1=C(C=C(C=C1)C2=CC3=NC=CN3C(=N2)NC4=C(C=CC=N4)C(=O)N)OC [BAY61-3606] + CS(=O)(=O)CCNCc1ccc(-c2ccc3ncnc(Nc4ccc(OCc5cccc(F)c5)c(Cl)c4)c3c2)o1 [Lapatinib] (partner 2 µM)
In short: (§1)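 Dosing by pin tool came one day after lung cancer cell lines were seeded in 1536-well plates, using either one drug or a fixed anchor-drug dose plus five library-drug doses (not always all listed) in √10 steps. After 5 days, nuclei were counted on 4× images. Relative viability is treated-well nuclei count divided by vehicle-well nuclei count, and values are medians of duplicate plates.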

Doxorubicin + Alpelisib = compound: COc1cccc2c1C(=O)c1c(O)c3c(c(O)c1C2=O)C[C@@](O)(C(=O)CO)C[C@@H]3O[C@H]1C[C@H](N)[C@H](O)[C@H](C)O1 [Doxorubicin] + Cc1nc(NC(=O)N2CCC[C@H]2C(N)=O)sc1-c1ccnc(C(C)(C)C(F)(F)F)c1 [Alpelisib] (partner 2 µM)
In short: as §1

Doxorubicin + Olaparib = compound: COc1cccc2c1C(=O)c1c(O)c3c(c(O)c1C2=O)C[C@@](O)(C(=O)CO)C[C@@H]3O[C@H]1C[C@H](N)[C@H](O)[C@H](C)O1 [Doxorubicin] + O=C(c1cc(Cc2n[nH]c(=O)c3ccccc23)ccc1F)N1CCN(C(=O)C2CC2)CC1 [Olaparib] (partner 8 µM)
In short: as §1

Doxorubicin + Tozasertib = compound: COc1cccc2c1C(=O)c1c(O)c3c(c(O)c1C2=O)C[C@@](O)(C(=O)CO)C[C@@H]3O[C@H]1C[C@H](N)[C@H](O)[C@H](C)O1 [Doxorubicin] + Cc1cc(Nc2cc(N3CCN(C)CC3)nc(Sc3ccc(NC(=O)C4CC4)cc3)n2)n[nH]1 [Tozasertib] (partner 0.1 µM)
In short: as §1

Cell Line	relative viability (BAY61-3606 + Lapatinib; first compound 0.02 µM)	relative viability (BAY61-3606 + Lapatinib; first compound 0.06325 µM)	relative viability (BAY61-3606 + Lapatinib; first compound 0.2 µM)	relative viability (BAY61-3606 + Lapatinib; first compound 0.6325 µM)	relative viability (BAY61-3606 + Lapatinib; first compound 2 µM)	relative viability (Doxorubicin + Alpelisib; first compound 0.001 µM)	relative viability (Doxorubicin + Alpelisib; first compound 0.003162 µM)	relative viability (Doxorubicin + Alpelisib; first compound 0.01 µM)	relative viability (Doxorubicin + Alpelisib; first compound 0.03162 µM)	relative viability (Doxorubicin + Alpelisib; first compound 0.1 µM)	relative viability (Doxorubicin + Olaparib; first compound 0.001 µM)	relative viability (Doxorubicin + Olaparib; first compound 0.003162 µM)	relative viability (Doxorubicin + Olaparib; first compound 0.01 µM)	relative viability (Doxorubicin + Olaparib; first compound 0.03162 µM)	relative viability (Doxorubicin + Olaparib; first compound 0.1 µM)	relative viability (Doxorubicin + Tozasertib; first compound 0.001 µM)	relative viability (Doxorubicin + Tozasertib; first compound 0.003162 µM)	relative viability (Doxorubicin + Tozasertib; first compound 0.01 µM)	relative viability (Doxorubicin + Tozasertib; first compound 0.03162 µM)	relative viability (Doxorubicin + Tozasertib; first compound 0.1 µM)
LK-2	0.922	0.777	1.01	1.03	0.935	0.521	0.642	0.947	0.868	0.85	0.713	0.672	0.585	0.604	0.653	0.153	0.156	0.134	0.177	0.19
LOU-NH91	0.765	0.681	0.827	0.735	0.669		0.707	0.701	0.589	0.398		0.877	0.899	0.666	0.462	0.638	0.644	0.71	0.638	0.615
LU99A	0.97	1.02	0.909	0.976	0.486	0.489	0.648	0.549	0.505	0.51	0.235	0.264	0.287	0.274	0.253	0.298	0.28	0.287	0.281	0.309
LXF-289	0.886	0.945	0.95	0.934	0.992	1.02	1.1	1.07	1.08	1.06	1.03	1.12	0.998	1.07	1.15	0.205	0.192	0.192	0.221	0.2
NCI-H23	1.16	1.39	1.11	0.985	0.95		0.716	0.555	0.517	0.662	0.356	0.373	0.293	0.334	0.32		0.452	0.362	0.389	0.397
NCI-H322M	0.622	0.612	0.596	0.599	0.553	0.916	0.77	0.924	0.769	0.777	0.731	0.765	0.745	0.542	0.508	0.518	0.506	0.518	0.437	0.383
NCI-H358	0.435	0.378	0.477	0.378	0.288	0.796	0.916	0.569	0.19	0.154	0.592	0.535	0.347	0.12	0.116	0.107	0.0976	0.0897	0.1	0.0933
NCI-H460	1.05	1.19	0.938	1.01	0.189	0.584	0.386	0.288	0.024	0.0112	0.366	0.419	0.346	0.114	0.0883	0.419	0.388	0.264	0.185	0.165
NCI-H520	0.9	1.05	0.901	0.959	0.729	0.903	1.05	0.858	0.732	0.738	0.318	0.337	0.313	0.248	0.297	0.409	0.432	0.434	0.343	0.413
NCI-H596	1.09	1.02	1.14	1.21	1.04	0.446	0.537	0.524	0.446	0.551	0.593	0.667	0.685	0.647	0.651	0.857	1.08	0.943	0.806	0.859
NCI-H647	1.13	1.25	1.12	1.11	0.86	1.15	1.08	0.98	0.288	0.163	0.503	0.47	0.48	0.0818	0.124	0.305	0.181	0.431	0.18	0.125
NCI-H650	1.16	0.948	0.783	0.884	0.801	1.31	1.13	1.06	0.938	0.822	0.418	0.494	0.38	0.334	0.296	0.908	0.736	0.784	0.582	0.63
NCI-H661	0.575	0.534	0.415	0.541	0.371	0.589	0.702	0.511	0.592	0.469	0.674	0.881	0.681	0.542	0.52	0.37	0.354	0.349	0.339	0.388
NCI-H727	0.701	0.742	0.82	0.983	0.753	0.45	0.617	0.55	0.469	0.705	0.821	0.811		0.768	0.753	0.697	0.513	0.697	0.636	0.661
NCI-H838	1.17	0.875	0.971	0.951	0.621	1	1.05	0.979	0.919	0.461	0.795	0.759	0.702	0.337	0.279	0.281	0.306	0.261	0.274	0.226
NCI-H1355	1.07	0.907	0.926	0.948	0.764	0.868	0.96	0.889	0.839	0.823	0.732	0.688	0.694	0.704	0.85	0.632	0.508	0.52	0.443	0.598

Cell Line	relative viability (BAY61-3606 + Lapatinib; first compound 0.02 µM)	relative viability (BAY61-3606 + Lapatinib; first compound 0.06325 µM)	relative viability (BAY61-3606 + Lapatinib; first compound 0.2 µM)	relative viability (BAY61-3606 + Lapatinib; first compound 0.6325 µM)	relative viability (BAY61-3606 + Lapatinib; first compound 2 µM)	relative viability (Doxorubicin + Alpelisib; first compound 0.001 µM)	relative viability (Doxorubicin + Alpelisib; first compound 0.003162 µM)	relative viability (Doxorubicin + Alpelisib; first compound 0.01 µM)	relative viability (Doxorubicin + Alpelisib; first compound 0.03162 µM)	relative viability (Doxorubicin + Alpelisib; first compound 0.1 µM)	relative viability (Doxorubicin + Olaparib; first compound 0.001 µM)	relative viability (Doxorubicin + Olaparib; first compound 0.003162 µM)	relative viability (Doxorubicin + Olaparib; first compound 0.01 µM)	relative viability (Doxorubicin + Olaparib; first compound 0.03162 µM)	relative viability (Doxorubicin + Olaparib; first compound 0.1 µM)	relative viability (Doxorubicin + Tozasertib; first compound 0.001 µM)	relative viability (Doxorubicin + Tozasertib; first compound 0.003162 µM)	relative viability (Doxorubicin + Tozasertib; first compound 0.01 µM)	relative viability (Doxorubicin + Tozasertib; first compound 0.03162 µM)	relative viability (Doxorubicin + Tozasertib; first compound 0.1 µM)
NCI-H1395	1.13	1.08	1.34	0.98	0.973	0.964	0.985	0.98	0.851	0.791	0.445	0.506	0.466	0.417	0.4	0.791	0.724	0.89	0.65	0.799
NCI-H1437	0.892	0.915	0.729	0.905	0.683	1.03	1	0.94	0.611	0.257	0.639	0.631	0.567	0.416	0.417	0.411	0.414	0.405	0.379	0.283
NCI-H1651	0.979	0.863	0.768	0.826	0.801	0.902	0.996	0.875	0.424	0.201	0.216	0.182	0.205	0.184	0.198	0.643	0.793	0.648	0.319	0.157
NCI-H1666	0.668		0.523	0.649	0.445	0.938	0.814	0.551	0.27	0.284		0.701	0.733	0.602	0.607	0.62	0.547	0.47	0.385	0.343
NCI-H1734	0.991	1.07	1	1.14	0.758	0.589	0.682	0.662	0.604	0.661	0.294	0.689	0.644	0.435	0.565	0.48	0.275	0.292	0.238	0.249
NCI-H1755	1.08	1.01	0.994	1.12	0.95	0.918	0.992	0.719	0.947	0.94	0.837	0.911	0.818	0.873	0.896	0.605	0.556	0.576	0.552	0.598
NCI-H1793	0.479	0.775	0.823	0.948	0.796		0.557	0.675	0.389	0.588		0.93	0.759	0.566	0.88		0.403	0.348	0.286	0.358
NCI-H1915	1.02	1.02	0.925	0.878	0.919	0.98	1.05	1.1	1.05	1.12	0.256	0.258	0.249	0.311	0.27	0.481	0.439	0.452	0.41	0.437
NCI-H1944	0.851	0.88	0.796	0.776	0.587	0.8	0.836	0.851	0.83	0.885	0.403	0.37	0.384	0.378	0.423	0.24	0.267	0.231	0.235	0.239
NCI-H1975	0.996	0.881	0.963	0.925	0.595	0.64	0.597	0.625	0.334	0.232	0.746	0.896	0.728	0.575	0.37	0.745	0.711	0.664	0.303	0.178
NCI-H1993	0.733	0.846	0.808	0.776	0.746	0.677	0.627	0.696	0.627	0.619	0.0056	0.942	1.03	0.817	0.962	0.593	0.657	0.555	0.58	0.591
NCI-H2009	1	0.971	0.937	0.962	0.861	1.08	1.2	1.17	1.07	0.478	0.735	0.557	0.64	0.457	0.315	0.748	0.745	0.678	0.524	0.284
NCI-H2023	0.917	0.805	0.869	1.45	0.591	0.595	0.617	0.524	0.203	0.0842	0.454	0.336	0.19	0.0859	0.0625	0.351	0.378	0.294	0.157	0.0799
NCI-H2085	0.865	0.784	0.777	0.977	0.71	0.936	1	0.992	0.739	0.686	0.788	0.825	0.828	0.92	0.775	0.815	0.829	0.919	0.796	0.829
NCI-H2087	0.747	1.08	0.994	1.11	1	1.2	1.15	1.19	0.984	0.862	0.652	0.528	0.445	0.443	0.372		0.278	0.248	0.165	0.156
